{"source": "patent US11352358B2", "about": "“FXR agonist” (XUANZHU BIOPHARMACEUTICAL CO., LTD., priority 2017, dated 2022)", "key": {"BSEP mRNA in HepG2 cells": {"system": "BSEP mRNA in HepG2 cells", "assay": "Relative expression of BSEP mRNA in HepG2 cells (qPCR), Experimental Example 1", "type": "cell-based, human", "conditions": "Table 1, 24 hrs, expression under 3 μM of PX-104 as 100%", "protocol": "compounds of the present invention (for their chemical names and preparation methods, see the preparation example of each compound); compound PX-104 and compound 30-70 (for their structures, see the background of the invention, and for their preparation methods, see patent applications WO2011020615A1 and WO2012087519A1).\n(§1) Cells were digested with pancreatin and collected, and the concentration of the cells was determined; according to the counting result, the cells were resuspended to a density of 7.5×10^5 cells/mL; 2 mL of the cell suspension was inoculated in each well of a 6-well cell culture plate; and the culture plate was placed in an incubator and cultured under the conditions of 37° C. and 5% CO2 for 24 hrs.\nThe to-be-tested compounds were diluted to 0.3 mM and 3 mM with DMSO; and 5 μL of each stock solution diluted in the previous step was added to 5 mL of medium individually. The concentrations of the obtained working solutions were 0.3 μM and 3 μM respectively. In the control group, medium was prepared by using equivoluminal DMSO instead of the stock solutions; the cell culture plate was taken out from the incubator; the medium was removed from the cell culture plate, and the working solutions and the control medium were added correspondingly; and the culture plate was then put back into the incubator and cultured under the conditions of 37° C. and 5% CO2 for 24 hrs.\nafter treatment for 24 hrs, the cell culture plate was taken out, and the medium was removed from the plate; the cells were rinsed three times with pre-cooled (4° C.) PBS; and 200 μL of pancreatin (preheated to 37° C.) was added to each well, and the plate was then gently shaken such that the pancreatin could evenly cover the plate bottom. The culture plate was then placed back into the incubator and incubated until the cells were separated from the plate bottom. 1 mL of medium was added to terminate digestion. The solution was gently pipetted and blown for several times with a pipettor, all the substances in each well were pipetted into a 1.5 mL Rnase-free centrifuge tube and centrifuged at 200×g for 5 mins; supernatants were removed to collect cell samples.\nCell lysis: Fresh RNA lysis buffer was prepared (wherein 10 μL of 2-mercaptoethanol was added to 1 mL of lysis buffer); 600 μL of lysis buffer was added to each cell sample; the cells were lysed completely by 1 to 2 mins of vigorous vortexing; the cell lysates were centrifuged at 12,000×g for 5 mins; and the supernatants were transferred to 1.5 mL Rnase-free centrifuge tubes.\nExtraction and purification of RNA: An equal amount of 70% ethanol was added to each cell lysate; the centrifuge tubes were then shaken vigorously, and the buffer was mixed sufficiently, so that the particulate precipitates that might be formed after the addition of ethanol were dispersed as even as possible; and adsorption columns were put into collecting tubes, and the mixtures were transferred to the adsorption columns. 700 μL was transferred at most each time; and the solutions were centrifuged at 12,000×g under room temperature for 15 secs. The solutions in the collecting tubes were discarded, and the adsorption columns were put into the collecting tubes once again; and all the remaining mixtures were then transferred into the adsorption columns. 700 μL of eluent I was added to the adsorption column; and the solutions were centrifuged at 12,000×g under room temperature for 15 secs. The adsorption columns were put into new collecting tubes; 500 μL of eluent II was added to the adsorption column; and the solutions were centrifuged at 12,000×g under room temperature for 15 secs. […]"}, "SHP mRNA in AML12 cells": {"system": "SHP mRNA in AML12 cells", "assay": "Relative expression of SHP mRNA in AML12 cells, EC50 (Experimental Example 4)", "type": "cell-based", "conditions": "Mus musculus, 24 hrs", "protocol": "compounds of the present invention (for their chemical names and preparation methods, see the preparation example for each compound).\nAML12 cells: mouse liver cells.\nControl: compound 1-1B with a structure shown as follows, prepared according to a prior art method (for detailed information, see patent application WO2012087519A1).\nas §1, with “of 7.5×10^4” for “of 7.5×10^5”, “cells/mL; 1” for “cells/mL; 2”, “a 12-well” for “a 6-well”\nThe compound were diluted to 1000, 200, 8, 1.6, 0.32, 0.128, 0.0256 and 0.00512 μM with DMSO. Compound solutions of different concentrations obtained in the previous step were further diluted by 1000 times with media to obtain working solutions, and a medium containing 0.1% of DMSO was adopted as a control group. The cell culture plate was taken out from the incubator, the medium was removed, and the working solutions and the control medium were added. The culture plate was placed back into the incubator and cultured under the conditions of 37° C. and 5% CO2 for 24 hrs.\nafter treatment for 24 hrs, the cell culture plate was taken out from the incubator, and the medium was removed from the plate; the cells were rinsed three times with pre-cooled (4° C.) PBS (phosphate buffer solution); and 200 μL of pancreatin (preheated to 37° C.) was added to each well, and the plate was then gently shaken such that the pancreatin could evenly cover the plate bottom. The culture plate was then placed back into the incubator and incubated until the cells were separated from the plate bottom. 1 mL of medium was added to terminate digestion. […]"}}}
{"smiles": "O=C(O)c1ccc2nc(N3C[C@@H]4C[C@H]3C[C@H]4OCc3c(-c4c(Cl)cccc4Cl)noc3C3CC3)sc2c1", "note": "[Compound 2-1, 2-((1S, 4S, 5R)-5-((5-cyclopropyl-3-(2,6-dichlorophenyl)isoxazol-4-yl)methoxy)-2-azabicyclo[2.2.1]heptan-2-yl)benzo[d]thiazole-6-carboxylic acid]", "values": [{"measurement": "relative expression of BSEP mRNA in HepG2 cells", "setting": "BSEP mRNA in HepG2 cells; 0.3 μM", "value": 166, "unit": "%"}, {"measurement": "relative expression of BSEP mRNA in HepG2 cells", "setting": "BSEP mRNA in HepG2 cells; 3 μM", "value": 185, "unit": "%"}, {"measurement": "EC50", "setting": "SHP mRNA in AML12 cells", "value": 0.76, "unit": "nM"}]}
